In ChEMBL document CHEMBL4811258, “Potent Antimalarials with Development Potential Identified by Structure-Guided Computational Optimization of a Pyrrole-Based Dihydroorotate Dehydrogenase Inhibitor Series” (J Med Chem, 2021):

Experiments:
[1] = biological target: Dihydroorotate dehydrogenase (quinone), mitochondrial (Rattus norvegicus, UniProt Q63707); assay: Inhibition of rat DHODH up to 100 uM; conditions: up to 100 µM
[2] = biological target: Dihydroorotate dehydrogenase (quinone), mitochondrial (Mus musculus, UniProt O35435); assay: Inhibition of mouse DHODH up to 100 uM; conditions: up to 100 µM
Sequence of Dihydroorotate dehydrogenase (quinone), mitochondrial (Mus musculus, UniProt O35435) (O35435 whole entry): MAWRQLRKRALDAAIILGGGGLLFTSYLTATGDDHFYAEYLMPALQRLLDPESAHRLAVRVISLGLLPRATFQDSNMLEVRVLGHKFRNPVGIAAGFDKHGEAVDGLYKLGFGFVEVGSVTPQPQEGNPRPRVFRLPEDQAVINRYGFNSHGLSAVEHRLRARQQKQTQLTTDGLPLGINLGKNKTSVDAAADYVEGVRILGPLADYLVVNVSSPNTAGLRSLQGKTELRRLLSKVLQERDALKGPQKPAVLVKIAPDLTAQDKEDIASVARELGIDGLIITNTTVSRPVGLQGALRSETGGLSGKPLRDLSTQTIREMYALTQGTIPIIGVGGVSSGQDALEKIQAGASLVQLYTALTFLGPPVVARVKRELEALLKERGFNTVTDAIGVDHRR

HepG2 = assay: Cytotoxicity against human HepG2 cells; assay type: cell-based
[3] = Mutagenicity in Salmonella typhimurium by Ames test; assay type: toxicity; conditions: salmonella enterica subsp. enterica serovar typhimurium
[4] = AUC (0 to infinity) in Swiss mouse at […], po measured up to 24 hrs by LC-MS analysis; assay type: ADME, organism-based; design: route oral, dose 2.6 mg/kg, time <=24; conditions: in vivo
[5] = Oral bioavailability in Swiss mouse at 24 mg/kg measured up to 24 hrs by LC-MS analysis; assay type: ADME, organism-based; conditions: in vivo
Cytochrome P450 2C8 = biological target: T1, Cytochrome P450 2C8 (Homo sapiens, UniProt P10632)
T1 sequence (P10632 whole entry): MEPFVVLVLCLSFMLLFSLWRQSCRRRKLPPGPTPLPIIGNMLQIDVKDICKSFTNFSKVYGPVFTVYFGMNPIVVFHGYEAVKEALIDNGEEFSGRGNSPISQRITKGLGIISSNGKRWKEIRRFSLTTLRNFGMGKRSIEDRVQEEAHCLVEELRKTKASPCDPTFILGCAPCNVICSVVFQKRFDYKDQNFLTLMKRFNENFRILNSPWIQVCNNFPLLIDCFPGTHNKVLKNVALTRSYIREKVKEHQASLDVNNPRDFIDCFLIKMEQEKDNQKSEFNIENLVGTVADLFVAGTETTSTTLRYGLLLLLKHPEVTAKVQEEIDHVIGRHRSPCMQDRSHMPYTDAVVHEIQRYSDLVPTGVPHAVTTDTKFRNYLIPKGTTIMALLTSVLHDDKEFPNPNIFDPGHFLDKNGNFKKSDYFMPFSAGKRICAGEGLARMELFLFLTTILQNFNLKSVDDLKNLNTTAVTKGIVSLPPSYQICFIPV

Cytochrome P450 3A4 = Cytochrome P450 3A4 (Homo sapiens, UniProt P08684)
Sequence of Cytochrome P450 3A4 (P08684 whole entry): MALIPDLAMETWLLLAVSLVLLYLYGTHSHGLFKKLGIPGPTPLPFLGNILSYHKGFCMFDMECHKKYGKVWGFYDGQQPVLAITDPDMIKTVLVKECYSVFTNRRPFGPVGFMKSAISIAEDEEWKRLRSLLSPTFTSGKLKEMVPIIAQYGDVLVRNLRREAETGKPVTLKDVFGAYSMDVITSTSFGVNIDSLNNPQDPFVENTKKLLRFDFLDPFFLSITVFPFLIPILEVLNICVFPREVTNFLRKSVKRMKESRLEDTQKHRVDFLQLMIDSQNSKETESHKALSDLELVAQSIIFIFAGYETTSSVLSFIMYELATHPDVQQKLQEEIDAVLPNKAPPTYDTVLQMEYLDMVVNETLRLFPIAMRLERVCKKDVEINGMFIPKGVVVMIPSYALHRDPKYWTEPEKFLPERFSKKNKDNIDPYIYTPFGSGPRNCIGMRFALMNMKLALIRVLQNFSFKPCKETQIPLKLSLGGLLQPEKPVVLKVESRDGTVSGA

[6] = rat, in vivo, po, 10 mg/kg, 24 h
in vivo = conditions: Swiss, mouse, po

Sequence of Dihydroorotate dehydrogenase (quinone), mitochondrial (Rattus norvegicus, UniProt Q63707) (Q63707 whole entry): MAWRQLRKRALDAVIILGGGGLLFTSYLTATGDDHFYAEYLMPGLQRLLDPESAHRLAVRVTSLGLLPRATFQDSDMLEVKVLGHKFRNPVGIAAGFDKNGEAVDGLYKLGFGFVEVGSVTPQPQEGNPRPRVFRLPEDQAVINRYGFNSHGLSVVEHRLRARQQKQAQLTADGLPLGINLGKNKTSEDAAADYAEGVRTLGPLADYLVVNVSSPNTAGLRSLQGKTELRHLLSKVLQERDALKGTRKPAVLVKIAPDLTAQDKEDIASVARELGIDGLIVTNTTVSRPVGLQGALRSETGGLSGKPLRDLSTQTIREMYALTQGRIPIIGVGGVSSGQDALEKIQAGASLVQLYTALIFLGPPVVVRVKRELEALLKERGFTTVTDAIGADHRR

With `Cc1c(C2(c3ccc(C(F)(F)F)nc3)CC2)c[nH]c1C(=O)NC(C)c1nc[nH]n1` (stereo in doubt; form 1) the “inhibition (INH)” value [1] was “Not Active”, the “inhibition (INH)” value [2] was “Not Active” and the Activity (HepG2) was “Non-Toxic”. The Activity [3] was “Non-Toxic”, the AUC(0-inf) at 24 h [4] was 29 µM·h and the F [5] was 70%. For the same molecule, the IC50 (Cytochrome P450 2C8) was over 20 µM, the TDI (Cytochrome P450 3A4) was “Not Active” and the Cmax [6] was 6 µM. The Tmax at 24 h (in vivo) was 4 h.
